This is an account of results in article PMC4979471 (Cell Death Discovery, 2015).

Common to all, as to experiment: Kinase selectivity, P33-radiolabeled assay
What all share (assay type): biochemical
Common to all, as to conditions: 10 μM ATP

The target of one assay is T1, FMS (Homo sapiens, UniProt P07333).
T1 construct: purchased Reaction Biology Corp
The gist of the method:
(§1)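 ATP at 10 μM; test article at 10 μM, single point, two replicates. Output is activity as % of DMSO.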

For the next assay, the target named is T2, GRK2 (Homo sapiens, UniProt P25098).
T2 construct: purchased Reaction Biology Corp
T2 sequence (P25098 1-689): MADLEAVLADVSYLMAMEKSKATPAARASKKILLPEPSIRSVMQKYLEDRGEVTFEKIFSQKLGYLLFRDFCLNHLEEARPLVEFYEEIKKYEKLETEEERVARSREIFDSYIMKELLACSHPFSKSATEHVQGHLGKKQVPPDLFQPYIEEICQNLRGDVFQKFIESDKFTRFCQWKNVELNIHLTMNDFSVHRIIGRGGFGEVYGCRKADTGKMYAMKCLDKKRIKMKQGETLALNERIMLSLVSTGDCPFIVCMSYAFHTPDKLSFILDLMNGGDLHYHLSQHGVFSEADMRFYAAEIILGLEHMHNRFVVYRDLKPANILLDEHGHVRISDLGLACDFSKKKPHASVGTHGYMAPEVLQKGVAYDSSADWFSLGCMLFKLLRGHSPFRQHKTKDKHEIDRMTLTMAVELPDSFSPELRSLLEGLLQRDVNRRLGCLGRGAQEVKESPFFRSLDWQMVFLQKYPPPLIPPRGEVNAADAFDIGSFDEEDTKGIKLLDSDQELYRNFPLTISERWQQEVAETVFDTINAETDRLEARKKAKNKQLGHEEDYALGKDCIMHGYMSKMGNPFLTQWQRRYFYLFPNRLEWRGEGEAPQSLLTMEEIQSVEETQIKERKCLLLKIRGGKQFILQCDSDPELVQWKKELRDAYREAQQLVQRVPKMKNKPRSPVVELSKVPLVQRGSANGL
The method, boiled down:
as §1

In the next assay the target is T3, PAK6 (Homo sapiens, UniProt Q9NQU5).
T3 construct: purchased Reaction Biology Corp
The gist of the method: as §1

A further assay deals with T4, RAF1 (Homo sapiens, UniProt P04049).
T4 construct: purchased Reaction Biology Corp
The method, boiled down:
as §1

The next assay concerns the target T5, RIPK2 (Homo sapiens, UniProt O43353).
T5 construct: purchased Reaction Biology Corp
The gist of the method:
as §1

In the next assay the target is T6, TTBK2 (Homo sapiens, UniProt Q6IQ55).
T6 construct: purchased Reaction Biology Corp
The method, boiled down: as §1

Setting [1] is: read-out: % Enzyme Activity (relative to DMSO controls) AVG.
Setting [2] is: read-out: % Enzyme Activity (relative to DMSO controls) Data 1.
[3] abbreviates: read-out: % Enzyme Activity (relative to DMSO controls) Data 2.

Read-outs that look alike come from different tables or passages of the source.

T1 sequence (P07333 20-972): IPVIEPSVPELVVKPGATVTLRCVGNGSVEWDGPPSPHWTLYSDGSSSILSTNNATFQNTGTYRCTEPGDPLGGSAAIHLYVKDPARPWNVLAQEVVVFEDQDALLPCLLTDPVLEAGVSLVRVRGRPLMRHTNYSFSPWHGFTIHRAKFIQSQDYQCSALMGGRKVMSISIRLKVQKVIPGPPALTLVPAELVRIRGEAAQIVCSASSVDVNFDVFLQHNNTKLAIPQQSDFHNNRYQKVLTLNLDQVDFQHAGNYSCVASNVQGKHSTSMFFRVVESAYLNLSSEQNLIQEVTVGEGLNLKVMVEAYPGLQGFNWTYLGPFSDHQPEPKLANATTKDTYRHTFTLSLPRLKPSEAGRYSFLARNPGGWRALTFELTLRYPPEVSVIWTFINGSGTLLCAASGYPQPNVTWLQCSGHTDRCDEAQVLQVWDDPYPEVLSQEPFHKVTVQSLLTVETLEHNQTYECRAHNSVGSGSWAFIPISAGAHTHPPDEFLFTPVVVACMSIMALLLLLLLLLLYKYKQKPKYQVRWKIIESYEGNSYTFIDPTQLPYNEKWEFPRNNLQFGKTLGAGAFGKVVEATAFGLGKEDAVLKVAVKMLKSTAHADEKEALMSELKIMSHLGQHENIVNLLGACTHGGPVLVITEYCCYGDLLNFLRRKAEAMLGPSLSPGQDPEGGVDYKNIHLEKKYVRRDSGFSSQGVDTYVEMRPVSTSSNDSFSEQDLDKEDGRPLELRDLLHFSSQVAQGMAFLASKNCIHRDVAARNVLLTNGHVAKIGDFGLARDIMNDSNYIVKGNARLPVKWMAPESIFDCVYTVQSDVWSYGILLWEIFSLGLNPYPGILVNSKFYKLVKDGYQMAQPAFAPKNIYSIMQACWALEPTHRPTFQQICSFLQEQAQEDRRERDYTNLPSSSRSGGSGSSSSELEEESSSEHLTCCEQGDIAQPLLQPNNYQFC
T6 sequence (Q6IQ55 whole entry): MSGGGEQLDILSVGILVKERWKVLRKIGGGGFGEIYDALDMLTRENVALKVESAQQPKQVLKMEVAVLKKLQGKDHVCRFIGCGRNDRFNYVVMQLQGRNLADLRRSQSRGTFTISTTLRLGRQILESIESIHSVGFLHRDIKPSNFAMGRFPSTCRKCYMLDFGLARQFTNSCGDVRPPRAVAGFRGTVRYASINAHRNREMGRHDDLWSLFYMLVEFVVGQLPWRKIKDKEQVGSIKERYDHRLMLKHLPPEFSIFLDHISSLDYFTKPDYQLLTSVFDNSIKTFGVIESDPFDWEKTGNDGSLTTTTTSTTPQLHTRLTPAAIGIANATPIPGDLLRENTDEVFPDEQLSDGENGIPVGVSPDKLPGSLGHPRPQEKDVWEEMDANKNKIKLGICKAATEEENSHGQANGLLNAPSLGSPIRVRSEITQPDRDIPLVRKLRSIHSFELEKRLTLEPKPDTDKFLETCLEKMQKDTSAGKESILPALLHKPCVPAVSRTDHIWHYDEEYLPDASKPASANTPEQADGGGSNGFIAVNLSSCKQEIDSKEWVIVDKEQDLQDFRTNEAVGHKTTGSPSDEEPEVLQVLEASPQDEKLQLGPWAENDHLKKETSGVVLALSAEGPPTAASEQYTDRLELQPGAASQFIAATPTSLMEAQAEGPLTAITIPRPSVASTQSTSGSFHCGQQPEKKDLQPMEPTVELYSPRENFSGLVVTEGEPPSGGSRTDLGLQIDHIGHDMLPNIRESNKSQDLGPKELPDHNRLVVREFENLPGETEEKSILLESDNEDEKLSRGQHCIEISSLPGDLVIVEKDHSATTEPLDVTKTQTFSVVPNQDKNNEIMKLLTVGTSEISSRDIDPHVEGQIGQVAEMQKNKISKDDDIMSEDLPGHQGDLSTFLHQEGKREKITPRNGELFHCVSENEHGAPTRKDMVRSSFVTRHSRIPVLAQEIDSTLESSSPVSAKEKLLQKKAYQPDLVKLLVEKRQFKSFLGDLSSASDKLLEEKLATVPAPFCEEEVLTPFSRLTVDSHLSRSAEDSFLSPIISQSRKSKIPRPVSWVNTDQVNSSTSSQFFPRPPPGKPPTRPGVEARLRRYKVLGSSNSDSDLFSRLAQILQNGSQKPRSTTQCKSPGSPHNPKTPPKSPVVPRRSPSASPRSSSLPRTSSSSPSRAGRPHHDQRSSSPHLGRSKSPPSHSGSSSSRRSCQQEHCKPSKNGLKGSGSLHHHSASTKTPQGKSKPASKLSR
T3 sequence (Q9NQU5 whole entry): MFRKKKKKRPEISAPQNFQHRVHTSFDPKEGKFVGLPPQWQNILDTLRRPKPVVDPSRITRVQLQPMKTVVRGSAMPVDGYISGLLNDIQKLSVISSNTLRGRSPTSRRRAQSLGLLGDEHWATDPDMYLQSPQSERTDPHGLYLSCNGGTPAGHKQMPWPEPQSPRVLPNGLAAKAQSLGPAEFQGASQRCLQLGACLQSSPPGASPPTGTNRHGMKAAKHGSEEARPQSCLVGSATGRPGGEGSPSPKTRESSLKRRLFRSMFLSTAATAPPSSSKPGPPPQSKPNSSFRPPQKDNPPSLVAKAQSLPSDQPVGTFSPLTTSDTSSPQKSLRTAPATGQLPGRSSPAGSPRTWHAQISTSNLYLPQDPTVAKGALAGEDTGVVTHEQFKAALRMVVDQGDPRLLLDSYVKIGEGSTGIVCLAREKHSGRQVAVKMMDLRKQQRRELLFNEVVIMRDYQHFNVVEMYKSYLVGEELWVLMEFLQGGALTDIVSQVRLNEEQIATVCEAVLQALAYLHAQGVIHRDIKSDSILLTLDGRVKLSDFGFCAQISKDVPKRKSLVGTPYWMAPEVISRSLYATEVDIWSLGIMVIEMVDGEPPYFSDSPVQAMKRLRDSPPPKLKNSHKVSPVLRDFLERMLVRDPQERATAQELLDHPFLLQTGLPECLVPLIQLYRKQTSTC
T5 sequence (O43353 whole entry): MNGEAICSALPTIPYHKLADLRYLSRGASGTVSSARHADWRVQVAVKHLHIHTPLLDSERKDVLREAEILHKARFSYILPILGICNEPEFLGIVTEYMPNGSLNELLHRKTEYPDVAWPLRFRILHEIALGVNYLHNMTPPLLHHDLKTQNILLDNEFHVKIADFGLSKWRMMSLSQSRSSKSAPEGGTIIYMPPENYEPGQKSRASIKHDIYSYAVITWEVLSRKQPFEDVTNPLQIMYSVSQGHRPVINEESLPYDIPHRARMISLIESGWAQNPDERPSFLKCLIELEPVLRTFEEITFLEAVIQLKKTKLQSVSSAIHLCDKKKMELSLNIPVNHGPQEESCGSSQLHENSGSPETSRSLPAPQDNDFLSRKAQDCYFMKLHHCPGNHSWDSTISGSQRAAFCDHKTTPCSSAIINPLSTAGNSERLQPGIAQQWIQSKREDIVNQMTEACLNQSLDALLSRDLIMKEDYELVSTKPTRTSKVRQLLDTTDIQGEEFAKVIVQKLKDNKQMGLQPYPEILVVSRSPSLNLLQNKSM
T4 sequence (P04049 whole entry): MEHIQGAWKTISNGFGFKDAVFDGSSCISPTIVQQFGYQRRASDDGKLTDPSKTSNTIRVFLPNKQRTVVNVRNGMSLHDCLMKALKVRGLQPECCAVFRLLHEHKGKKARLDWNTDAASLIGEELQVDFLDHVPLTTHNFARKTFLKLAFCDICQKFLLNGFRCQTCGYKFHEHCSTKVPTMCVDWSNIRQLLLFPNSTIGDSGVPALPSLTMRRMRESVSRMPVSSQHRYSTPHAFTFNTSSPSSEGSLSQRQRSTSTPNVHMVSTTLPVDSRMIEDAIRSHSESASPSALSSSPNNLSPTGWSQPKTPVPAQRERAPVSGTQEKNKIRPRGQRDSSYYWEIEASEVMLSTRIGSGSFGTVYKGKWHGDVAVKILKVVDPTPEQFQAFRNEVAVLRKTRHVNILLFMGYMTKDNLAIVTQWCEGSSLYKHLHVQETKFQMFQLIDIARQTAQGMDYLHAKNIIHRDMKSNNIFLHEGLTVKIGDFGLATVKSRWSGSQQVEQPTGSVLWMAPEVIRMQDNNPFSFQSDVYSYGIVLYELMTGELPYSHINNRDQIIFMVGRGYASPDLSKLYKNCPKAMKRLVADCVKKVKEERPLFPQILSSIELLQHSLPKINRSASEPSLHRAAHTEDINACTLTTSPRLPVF

As for `CC(C)(C)C(=O)N1N=CC[C@H]1c1ccccc1` [GSK′963], the remaining activity at 10 µM at FMS (setting [1]) is 95%; on FMS (setting [2]), 97.2%; on FMS (setting [3]) it was 92.8%; at GRK2 (setting [1]), 95.7%; on GRK2 (setting [2]) it was 99.5%; on GRK2 (setting [3]), 91.8%. Besides, the remaining activity at 10 µM turned out to be 97.1% at PAK6 (setting [1]); 99.6% at PAK6 (setting [2]); 94.7% on PAK6 (setting [3]); 93.7% at RAF1 (setting [1]); 94.8% on RAF1 (setting [2]); 92.7% on RAF1 (setting [3]). For the same compound, the remaining activity at 10 µM is 110% on RIPK2 (setting [1]); 108% at RIPK2 (setting [2]); 112% on RIPK2 (setting [3]); 97.8% on TTBK2 (setting [1]); 98.5% on TTBK2 (setting [2]); 97.1% on TTBK2 (setting [3]).
